Reference: patent US9198979B2, “Thiazolidine linker for the conjugation of drugs to antibodies” (Philogen S.P.A., priority 2010, dated 2015)
Like-named read-outs stand apart in the source and are kept apart here.

Key:
[1] = test system: HEK293T cells; assay: In vitro toxicity assay (MTS cell proliferation assay), HEK293T; type: cell-based, human; settings: ~72 hours
Description: HEK293T cells were grown in RPMI (Gigbo-Invitrogen) medium supplemented with 10% FCS and antibiotics and maintained at 37° C. in 5% CO2.
(§1) For the in vitro toxicity assay 30000 cells/well (final volume 100 μl) were seeded in a 96 well plate with a defined peptide dilution (by adding 1.5 μl of peptide solution to 500 μl of cell suspension) and incubated at 37° C. in 5% CO2.
(§2) After ˜72 hours, cell viability was measured using the “Cell Titer 96®Aqueous One Solution Cell Proliferation Assay” (Promega), performed according to the manufacturers instruction. Briefly: 20 μl of MTS solution were added to each well, the plate was then incubated at 37° C. for 2 hour. The read out of the assay is the absorbance at 490 nm.

[2] = test system: F9 teratocarcinoma cells; assay: In vitro toxicity assay (MTS cell proliferation assay), F9; type: cell-based, murine; settings: F9, ~72 hours
Description: as §1, §2
(§3) The experiments were then extended to F9 and HL60 cells in the same manner.
Cem-CH2—SH cell killing ability was evaluated by cytotoxicity assays: one non-tumor cell line (human embryonic kidney cells, HEK 293T) and two tumor cell lines, murine F9 teratocarcinoma cells (F9) and human promyelocytic leukemia cells (HL60), were incubated over 3 days with different concentrations of non-modified cemadotin and the derivative Cem-CH2—SH (FIG. 20).

[3] = test system: HL60 cells; assay: In vitro toxicity assay (MTS cell proliferation assay), HL60; type: cell-based, human; settings: HL60, ~72 hours
Description: as §1, §2, §3

| Substance | t1/2 thiazolidine (fluorescein release half-life) (pH 6.6) | t1/2 thiazolidine (fluorescein release half-life) (pH 7.4) | cytotoxicity (IC50) [1] | cytotoxicity (IC50) [2] | cytotoxicity (IC50) [3] |
| --- | --- | --- | --- | --- | --- |
| BSA-fluorescein conjugate: BSA conjugated to carboxyfluorescein by the thiazolidine linker | 37 h | 44 h |  |  |  |
| Cemadotin |  |  | sub-nanomolar | sub-nanomolar | sub-nanomolar |
